Tests used:
Chinese sprangletop = test: Test Example 3: herbicidal effect by foliage application, Wagner pot (Table 18, symbol D); type: in vivo, chinese sprangletop (Leptochloa chinensis); conditions: 320 g/ha
Outline: (§1)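 Plants were sown in alluvial soil held under 0.1–0.5 cm standing water and grown 14 days in a greenhouse at 25–30 °C. An emulsifiable formulation, water-diluted to the set dose, was then sprayed onto the foliage, and effects were scored three weeks later using previously defined criteria.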

barnyard grass [1] = test: Test Example 3: herbicidal effect by foliage application, Wagner pot (Table 18, symbol H); type: in vivo, barnyard grass (Echinochloa crus-galli); conditions: 320 g/ha
Outline: as §1

lambsquarters [2] = test: Test Example 5: herbicidal effect by foliage application, plastic box (Table 20, symbol O); type: in vivo, lambsquarters (Chenopodium album); conditions: 320 g/ha, foliage application after 14-day growth, evaluated three weeks after application
Outline: (§2)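 Plants sown in sterilized diluvial soil and grown 14 days in a greenhouse at 25° C to 30° C, then sprayed on the foliage with the compound's emulsion diluted in water to a predetermined herbicide amount. Injury to weeds and crops scored three weeks after application on a visual rating scale.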

persian speedwell [3] = test: Test Example 4: herbicidal effect by soil treatment (Table 19, symbol R); type: in vivo, Persian speedwell (Veronica persica); conditions: amount of applied herbicide 320 g/ha
Outline: (§3)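 Three weeks of greenhouse growth at 25° C. to 30° C. followed a uniform surface spray of water-diluted emulsion at a predetermined herbicide amount. Seeds had been sown beforehand under about 1.5 cm of sterilized diluvial soil. Grading followed criteria set out in an earlier test.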

late watergrass = test: Test Example 1: herbicidal activity, application before weed generation under submerged conditions (Table 16, symbol A); type: in vivo, late watergrass (Echinochloa oryzicola); conditions: amount of applied herbicide 320 g/ha
Outline: (§4)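 Submerged Wagner pots (alluvial soil, 4 cm water) sown with weed seeds and planted with 2.5-leaf rice seedlings; emulsifiable concentrate diluted in water applied to water surface on sowing day. Held in greenhouse at 25-30 °C; injury scored 0-5 by herbicidal rate after three weeks.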

redroot pigweed [4] = test: Test Example 5: herbicidal effect by foliage application, plastic box (Table 20, symbol N); type: in vivo, redroot pigweed (Amaranthus retroflexus); conditions: 320 g/ha, foliage application after 14-day growth, evaluated three weeks after application
Outline: as §2

chickweed [5] = test: Test Example 5: herbicidal effect by foliage application, plastic box (Table 20, symbol P); type: in vivo, common chickweed (Stellaria media); conditions: 320 g/ha, foliage application after 14-day growth, evaluated three weeks after application
Outline: as §2

wild oat [6] = test: Test Example 4: herbicidal effect by soil treatment (Table 19, symbol I); type: in vivo, wild oat (Avena fatua); conditions: amount of applied herbicide 320 g/ha
Outline: as §3

green foxtail [7] = test: Test Example 5: herbicidal effect by foliage application, plastic box (Table 20, symbol G); type: in vivo, green foxtail (Setaria viridis); conditions: 320 g/ha, foliage application after 14-day growth, evaluated three weeks after application
Outline: as §2

windgrass [8] = test: Test Example 5: herbicidal effect by foliage application, plastic box (Table 20, symbol L); type: in vivo, windgrass (Apera spica-venti); conditions: 320 g/ha, foliage application after 14-day growth, evaluated three weeks after application
Outline: as §2

barnyard grass [9] = test: Test Example 5: herbicidal effect by foliage application, plastic box (Table 20, symbol H); type: in vivo, barnyard grass (Echinochloa crus-galli); conditions: 320 g/ha, foliage application after 14-day growth, evaluated three weeks after application
Outline: as §2

Italian ryegrass [10] = test: Test Example 4: herbicidal effect by soil treatment (Table 19, symbol K); type: in vivo, Italian ryegrass (Lolium multiflorum); conditions: amount of applied herbicide 320 g/ha
Outline: as §3

Italian ryegrass [11] = test: Test Example 5: herbicidal effect by foliage application, plastic box (Table 20, symbol K); type: in vivo, Italian ryegrass (Lolium multiflorum); conditions: 320 g/ha, foliage application after 14-day growth, evaluated three weeks after application
Outline: as §2

southern crabgrass [12] = test: Test Example 5: herbicidal effect by foliage application, plastic box (Table 20, symbol F); type: in vivo, southern crabgrass (Digitaria ciliaris); conditions: 320 g/ha, foliage application after 14-day growth, evaluated three weeks after application
Outline: as §2

velvetleaf [13] = test: Test Example 4: herbicidal effect by soil treatment (Table 19, symbol M); type: in vivo, velvetleaf (Abutilon theophrasti); conditions: amount of applied herbicide 320 g/ha
Outline: as §3

lambsquarters [14] = test: Test Example 4: herbicidal effect by soil treatment (Table 19, symbol O); type: in vivo, lambsquarters (Chenopodium album); conditions: amount of applied herbicide 320 g/ha
Outline: as §3

chickweed [15] = test: Test Example 4: herbicidal effect by soil treatment (Table 19, symbol P); type: in vivo, common chickweed (Stellaria media); conditions: amount of applied herbicide 320 g/ha
Outline: as §3

wild oat [16] = test: Test Example 5: herbicidal effect by foliage application, plastic box (Table 20, symbol I); type: in vivo, wild oat (Avena fatua); conditions: 320 g/ha, foliage application after 14-day growth, evaluated three weeks after application
Outline: as §2

Japanese bulrush = test: Test Example 1: herbicidal activity, application before weed generation under submerged conditions (Table 16, symbol B); type: in vivo, Japanese bulrush (Schoenoplectus juncoides); conditions: amount of applied herbicide 320 g/ha
Outline: as §4

windgrass [17] = test: Test Example 4: herbicidal effect by soil treatment (Table 19, symbol L); type: in vivo, windgrass (Apera spica-venti); conditions: amount of applied herbicide 320 g/ha
Outline: as §3

rice flat sedge = test: Test Example 3: herbicidal effect by foliage application, Wagner pot (Table 18, symbol E); type: in vivo, rice flat sedge (Cyperus iria); conditions: 320 g/ha
Outline: as §1

southern crabgrass [18] = test: Test Example 4: herbicidal effect by soil treatment (Table 19, symbol F); type: in vivo, southern crabgrass (Digitaria ciliaris); conditions: amount of applied herbicide 320 g/ha
Outline: as §3

velvetleaf [19] = test: Test Example 5: herbicidal effect by foliage application, plastic box (Table 20, symbol M); type: in vivo, velvetleaf (Abutilon theophrasti); conditions: 320 g/ha, foliage application after 14-day growth, evaluated three weeks after application
Outline: as §2

redroot pigweed [20] = test: Test Example 4: herbicidal effect by soil treatment (Table 19, symbol N); type: in vivo, redroot pigweed (Amaranthus retroflexus); conditions: amount of applied herbicide 320 g/ha
Outline: as §3

blackgrass [21] = test: Test Example 5: herbicidal effect by foliage application, plastic box (Table 20, symbol J); type: in vivo, blackgrass (Alopecurus myosuroides); conditions: 320 g/ha, foliage application after 14-day growth, evaluated three weeks after application
Outline: as §2

barnyard grass [22] = test: Test Example 4: herbicidal effect by soil treatment (Table 19, symbol H); type: in vivo, barnyard grass (Echinochloa crus-galli); conditions: amount of applied herbicide 320 g/ha
Outline: as §3

persian speedwell [23] = test: Test Example 5: herbicidal effect by foliage application, plastic box (Table 20, symbol R); type: in vivo, Persian speedwell (Veronica persica); conditions: 320 g/ha, foliage application after 14-day growth, evaluated three weeks after application
Outline: as §2

oval-leafed pondweed = test: Test Example 1: herbicidal activity, application before weed generation under submerged conditions (Table 16, symbol C); type: in vivo, oval-leafed pondweed (Monochoria vaginalis); conditions: amount of applied herbicide 320 g/ha
Outline: as §4

green foxtail [24] = test: Test Example 4: herbicidal effect by soil treatment (Table 19, symbol G); type: in vivo, green foxtail (Setaria viridis); conditions: amount of applied herbicide 320 g/ha
Outline: as §3

blackgrass [25] = test: Test Example 4: herbicidal effect by soil treatment (Table 19, symbol J); type: in vivo, blackgrass (Alopecurus myosuroides); conditions: amount of applied herbicide 320 g/ha
Outline: as §3

COc1ccc2c(-c3c(O)c(C)nn(C)c3=O)c(-c3ccc(OC(F)F)cc3)sc2c1 [3-159]
herbicidal effect on Chinese sprangletop (D) (Chinese sprangletop): 0 (Herbicidal rate of 5% or less (almost no effect)) | herbicidal effect on barnyard grass (H) (barnyard grass [1]): 2 (Herbicidal rate of 20% or more and less than 40%) | herbicidal effect on O: lambsquarters (evaluation grade 0-5) (lambsquarters [2]): 5 (Herbicidal rate of 90% or more (almost completely withered)) | Herbicidal effect by soil treatment, R: persian speedwell (persian speedwell [3]): 3 (Herbicidal rate of 40% or more and less than 70%) | Herbicidal effect, A: late watergrass (late watergrass): 0 (Herbicidal rate of 5% or less (almost no effect)) | herbicidal effect on N: redroot pigweed (evaluation grade 0-5) (redroot pigweed [4]): 5 (Herbicidal rate of 90% or more (almost completely withered)) | herbicidal effect on P: chickweed (evaluation grade 0-5) (chickweed [5]): 5 (Herbicidal rate of 90% or more (almost completely withered)) | Herbicidal effect by soil treatment, I: wild oat (wild oat [6]): 0 (Herbicidal rate of 5% or less (almost no effect)) | herbicidal effect on G: green foxtail (evaluation grade 0-5) (green foxtail [7]): 0 (Herbicidal rate of 5% or less (almost no effect)) | herbicidal effect on L: windgrass (evaluation grade 0-5) (windgrass [8]): 0 (Herbicidal rate of 5% or less (almost no effect)) | herbicidal effect on H: barnyard grass (evaluation grade 0-5) (barnyard grass [9]): 0 (Herbicidal rate of 5% or less (almost no effect)) | Herbicidal effect by soil treatment, K: Italian ryegrass (Italian ryegrass [10]): 0 (Herbicidal rate of 5% or less (almost no effect)) | herbicidal effect on K: Italian ryegrass (evaluation grade 0-5) (Italian ryegrass [11]): 4 (Herbicidal rate of 70% or more and less than 90%) | herbicidal effect on F: southern crabgrass (evaluation grade 0-5) (southern crabgrass [12]): 0 (Herbicidal rate of 5% or less (almost no effect)) | Herbicidal effect by soil treatment, M: velvetleaf (velvetleaf [13]): 1 (Herbicidal rate of 5% or more and less than 20%) | Herbicidal effect by soil treatment, O: lambsquarters (lambsquarters [14]): 4 (Herbicidal rate of 70% or more and less than 90%) | Herbicidal effect by soil treatment, P: chickweed (chickweed [15]): 0 (Herbicidal rate of 5% or less (almost no effect)) | herbicidal effect on I: wild oat (evaluation grade 0-5) (wild oat [16]): 0 (Herbicidal rate of 5% or less (almost no effect)) | Herbicidal effect, B: Japanese bulrush (Japanese bulrush): 3 (Herbicidal rate of 40% or more and less than 70%) | Herbicidal effect by soil treatment, L: windgrass (windgrass [17]): 0 (Herbicidal rate of 5% or less (almost no effect)) | herbicidal effect on rice flat sedge (E) (rice flat sedge): 3 (Herbicidal rate of 40% or more and less than 70%) | Herbicidal effect by soil treatment, F: southern crabgrass (southern crabgrass [18]): 0 (Herbicidal rate of 5% or less (almost no effect)) | herbicidal effect on M: velvetleaf (evaluation grade 0-5) (velvetleaf [19]): 4 (Herbicidal rate of 70% or more and less than 90%) | Herbicidal effect by soil treatment, N: redroot pigweed (redroot pigweed [20]): 4 (Herbicidal rate of 70% or more and less than 90%) | herbicidal effect on J: blackgrass (evaluation grade 0-5) (blackgrass [21]): 3 (Herbicidal rate of 40% or more and less than 70%) | Herbicidal effect by soil treatment, H: barnyard grass (barnyard grass [22]): 0 (Herbicidal rate of 5% or less (almost no effect)) | herbicidal effect on R: persian speedwell (evaluation grade 0-5) (persian speedwell [23]): 5 (Herbicidal rate of 90% or more (almost completely withered)) | Herbicidal effect, C: oval-leafed pondweed (oval-leafed pondweed): 3 (Herbicidal rate of 40% or more and less than 70%) | Herbicidal effect by soil treatment, G: green foxtail (green foxtail [24]): 0 (Herbicidal rate of 5% or less (almost no effect)) | Herbicidal effect by soil treatment, J: blackgrass (blackgrass [25]): 0 (Herbicidal rate of 5% or less (almost no effect))

From patent US20230085307A1, “PYRIDAZINONE COMPOUND AND HERBICIDE” (NISSAN CHEMICAL CORPORATION, priority 2019, published 2023)
